We go through three compounds from patent US20240335431A1, “1-H-PYRROLO[2,3-c]PYRIDINE COMPOUNDS” (Acerta Pharma B.V., priority 2023, published 2024).

One series has as its target Menin protein (Homo sapiens, UniProt O00255, DEL460-519). Put plainly: Menin/MLL fluorescence polarization (FP) assay. It counts as binding. The following applies: Menin 2 nM, cRho110-Ahx-MBM1/MBM2 peptide 1 nM. As for the experimental part: Compounds were tested in a biochemical binding assay using Menin protein at 2 nM (N6his-tev-Menin_4i80, PB-20-1459) and the substrate cRho110-Ahx-MBM1/MBM2 peptide (UbiQ, UbiQ-Q20201030; cRh110-Ahx-[…]-QRVPALLLPPG-NH2) at 1 nM.
384 Low volume black plates (Corning #4514) were used. 5 μL/well compound or 3% DMSO was added at 10-fold serial dilutions in DMSO from 10 μM. 5 μL/well cRho110-Ahx-MBM1/MBM2 peptide or binding buffer (50 mM Tris pH 7.5, 50 mM NaCl, 1 mM TCEP, 0.01% BGG, 0.01% Brij-35) was added to all wells. 5 μL/well Menin protein or binding buffer (50 mM Tris pH 7.5, 50 mM NaCl, 1 mM TCEP, 0.01% BGG, 0.01% Brij-35) was added to all wells. Plates were read on an EnVision plate reader (Perkin Elmer) with excitation at 480 nm and emission at 535 nm P+S, and measured every 5 minutes for 180 minutes.
Data were analyzed in Genedata Screener®. IC50 values were determined by plotting % inhibition versus log compound concentration and using a one site dose response model. Raw data signals were normalized using 1% DMSO no Menin as 100% inhibitor control and 1% DMSO with Menin and no inhibitor as 0% inhibitor control.
(Fluorescence polarisation rises when a labelled molecule tumbles more slowly, as on binding a larger partner.)

Series [1] has as its system MOLM-13 cells. Put plainly: Proliferation assay, MOLM-13 (CellTiter-Glo, 7 days). It counts as cell-based, human. Put shortly: (§1)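 Cells seeded at 125 (MOLM-13), 300 (MV4;11), 75 (OCI-AML3) or 200 (HEL) per well were exposed to 3.16-fold compound dilutions (0.1% DMSO) for 7 days at 37° C. Viability by CellTiter-Glo luminescence, normalized to DMSO (100%) and day-0 plate (0%); IC50 from one-site dose-response fit.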
(In general: ATP-based viability assays read luminescence as a measure of living cells.)

In the next series the test system is HEL cells. In words: Proliferation assay, HEL control cell line (CellTiter-Glo, 7 days). It counts as cell-based, human. Put shortly: as §1
Series [2] can be described thus: Human liver microsomes (HLMs) intrinsic clearance assay. It counts as in vitro ADME. (Microsomes from liver hold many membrane-bound enzymes, among them those of drug oxidation.)
A short description of series [3]: Human hepatocyte intrinsic clearance assay. The settings on record: human hepatocytes. It counts as in vitro ADME. On the procedure:
Human hepatocytes (LiverPool™ 10-Donor Human hepatocytes (Mixed Gender, PEG-free, Product No. S01205, 5 million cells per vial) were obtained from BioreclamationIVT. DMSO was sourced from Solarbio S&T Co Ltd. Leibovitz's L-15 Medium, Williams' Medium E, GlutaMAX™-1 (100×), HEPES, DPBS (10×) and Human Recombinant Insulin Solution were purchased from Gibco. Isotonic Percoll Solution was purchased from GE Healthcare. Fetal Bovine Serum (FBS) was purchased from Corning.
10 mM dexamethasone stock solution was prepared by dissolving 3.9 mg dexamethasone in 1 mL of DMSO. An Isotonic Percoll Solution was prepared by dilution of Percoll with DPBS (10×). 15 mL of Isotonic Percoll Solution (90% Percoll/10% DPBS) was added to 31.25 mL William's E medium containing 500 mL of GlutaMAX™-1 (100×), 750 mL of 1M HEPES, 2.5 mL of 5% FBS, 50 mL of 4 mg/mL Human Recombinant Insulin Solution and 5 mL of the 10 mM dexamethasone stock.
2 mL of 10 mM DMSO stock solutions of test compound were added to 198 mL acetonitrile to produce 100 mmol/L concentration.
The human hepatocyte vial was thawed at 37° C. in a waterbath. Once thawed, contents were poured into a 50 mL conical tube and centrifuged at 100 g for 10 minutes. The thawing medium was poured out and 4 mL L-15 medium was added. The tube was gently shaken to resuspend the hepatocytes and cells were counted with an appropriate cell counter. 247.5 mL of the hepatocyte suspension was transferred into each well of the plate and pre-warmed at 600 rpm and 50° C. to enable the temperature to rise to 37° C.
2.5 mL of the […] test compound solution was added to initiate the reaction (final concentration […]) and incubated at 37° C. with shaking at 900 rpm. At 0.5, 5, 15, 30, 45, 60, 80, 100 and 120 minutes, 20 mL was taken into a quenching solution of acetonitrile containing internal standards. The mix was vortexed at 800 rpm for 2 minutes followed by centrifugation for 20 minutes at 4000 rpm at 4° C. 40 mL of supernatant was transferred into a 96 well analysis plate containing 160 mL of water in each well. The analysis plate was shaken at 100 rpm for 2 minutes prior to analysis by LC-MS/MS.
Peak areas were determined from extracted ion chromatograms. Percent parent remaining was calculated from peak area of test compound. The slope value, k, was determined by linear regression of the natural logarithm of percent parent remaining versus incubation time.
The in vitro intrinsic clearance (in vitro CLint in mL/min/10^6 cells) was determined from the slope value using the following equation: […]
where V is the incubation volume (0.25 mL) and N is the number of hepatocytes per well (0.25×10^6 cells).

A further series relates to MV4;11 cells. Put plainly: Proliferation assay, MV4;11 (CellTiter-Glo, 7 days). It counts as cell-based, human. The following applies: read-out: MV-4-11 IC50. On the procedure:
(§2) The anti-proliferative effect of compounds was tested in human leukaemia cell lines. The cell lines […] and MV4; 11 each harbor an MLL translocation expressing the MLL fusion proteins MLL-AF9 and MLL-AF4, respectively. Each also express the wildtype protein from the second allele. OCI-AML3 cells carrying the NPM1c gene mutation were also tested.
(§3) MOLM-13 and HEL cells were cultured in RPMI 1640 (Gibco) supplemented with 10% FBS (Gibco) and 1% Pen/Strep (Gibco). MV4; 11 cells were cultured in IMDM (Gibco) supplemented with 10% FBS (Gibco) and 1% Pen/Strep (Gibco). OCI-AML3 cells were cultured in MEMa (Gibco) supplemented with 20% FBS (Gibco) and 1% Pen/Strep (Gibco).
(§4) To assess proliferative effects, 125 MOLM-13 cells, 300 MV4; 11 cells, 75 OCI-AML3 cells, and 200 HEL cells were seeded in 40 μL media per well in 384-well ViewPlates (Perkin Elmer, 6007480). Cell seeding numbers were chosen based on growth curves to ensure linear growth throughout the experiments. Test compounds were added at 3.16-fold serial dilutions in DMSO from […] and DMSO content was normalized to 0.1%. Cells were incubated for 7 days at 37° C. and 5% CO2. A day 0 plate was seeded for each cell line and used as a standard control.
(§5) To measure cell viability, CellTiter-Glo 2.0 (Promega, G9242) luminescent growth indicator was used. 10 μL CellTiter-Glo reagent was added per well. Plates were placed on a plate shaker for 2 minutes in the dark and left to incubate off the shaker for another 8 minutes in the dark, for a total of 10 minutes. Plates were read using an EnVision plate reader (Perkin Elmer) using the Luminescence aperture and a measurement time of 0.1 second.
(§6) Data were analyzed in Genedata Screener®. IC50 values were determined by plotting % inhibition versus log compound concentration and using a one site dose response model. Raw data signals were normalized using 0.1% DMSO media only as background control, 0.1% DMSO with cells no compound as 100% viability (maximum signal), and day 0 0.1% DM with cells no compound as 0% viability (minimum signal).

The subject of another series is OCI-AML3 cells. Put plainly: Proliferation assay, OCI-AML3 (CellTiter-Glo, 7 days). It counts as cell-based, human. On the procedure:
as §2, §3, §4, §5, §6

Series [4] relates to MOLM-13 cells. In words: Cell death in MOLM-13 cell line, Compound 56-2 with BCL2 inhibitor venetoclax (CellTiter-Glo, 4 days). It counts as cell-based, human. As for the experimental part:
Test compound was dispensed using a Tecan compound dispenser into 384-well plates (Microplate 384-well, polypropylene, F-bottom; Greiner Bio-One, #781201) in a ten-by-ten response matrix to assess the combination effects of Menin inhibition (Compound 56-2) together with BCL-2 inhibition (venetoclax) at the following concentrations after subsequent cell seeding in 40 μL of growth media: 10 μM, 3.16 μM, 1 μM, 0.316 μM, 0.1 μM, 0.0316 μM, 0.01 μM, 0.00316 μM, […], and vehicle (DMSO; Sigma-Aldrich, D2650). Cells were seeded at 1000 cells per well and incubated at 37° C. and 5% CO2. MOLM-13 cells were grown in RPM1 1640 (Gibco, #21875091) supplemented with 10% FBS (Gibco; #10091-148) and 1% Pen/Strep (Gibco; #15140-122). After 4 days of compound treatment, plates were placed at room temperature for 15 minutes. 10 μL CellTiter-Glo reagent (Promega, #G9242) was added to the cells and incubated for 10 minutes in the dark on a plate shaker at room temperature. A backseal (Perkin Elmer; #6005199) was added to the plates and luminescence was measured at 0.1 sec/well in an Envision (Perkin Elmer). Data were normalized for each plate so that the average of control wells (DMSO) was set to 0%, and the maximum observed value across the plate was set as 100%. Data fitting was performed using Graphpad Prism and combination effect was assessed using SynergyFinder.

The IC50 is the point on the concentration scale where inhibition reaches its midpoint.

Sequence of Menin protein (O00255 with tags, fused parts or gaps DEL460-519): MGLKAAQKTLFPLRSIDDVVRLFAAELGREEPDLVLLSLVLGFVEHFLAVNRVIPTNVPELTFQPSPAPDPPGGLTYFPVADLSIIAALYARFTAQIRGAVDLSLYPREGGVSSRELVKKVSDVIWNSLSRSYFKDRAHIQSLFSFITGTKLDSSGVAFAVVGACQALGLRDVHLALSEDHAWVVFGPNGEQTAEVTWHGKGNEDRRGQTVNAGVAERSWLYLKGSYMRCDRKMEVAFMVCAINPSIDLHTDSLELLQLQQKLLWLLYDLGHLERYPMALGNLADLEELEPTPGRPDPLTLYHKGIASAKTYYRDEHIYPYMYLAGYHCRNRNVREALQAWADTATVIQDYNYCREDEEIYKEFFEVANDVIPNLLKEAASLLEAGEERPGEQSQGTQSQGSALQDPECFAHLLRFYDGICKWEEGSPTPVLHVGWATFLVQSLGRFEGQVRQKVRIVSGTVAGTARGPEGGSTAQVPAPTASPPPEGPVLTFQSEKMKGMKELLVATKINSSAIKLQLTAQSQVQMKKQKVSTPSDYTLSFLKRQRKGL

In the case of `CCN(C(=O)c1cc(F)ccc1-n1c(C)c(C(=O)[C@@H]2CCN(C(=O)[C@@H]3CCC4(CC4)N3)[C@@H](C)C2)c2ccncc21)C(C)C` (single isomer, unassigned) [Example 52-4, N-Ethyl-5-fluoro-N-isopropyl-2-(2-methyl-3-((2R*,4S*)-2-methyl-1-((S)-4-azaspiro[2.4]heptane-5-carbonyl)piperidine-4-carbonyl)-1H-pyrrolo[2,3-c]pyridin-1-yl)benzamide], the values for the IC50 at Menin protein, with MOLM-13 cells [1] and in the series with HEL cells were 2470 nM, 1090 nM and greater than 10000 nM, respectively. The “HLM CLint” value in series [2] (1 mg/mL HLM, NADPH) is greater than 300 µL/min/mg. Also, in series [3], the “HH CLint” value worked out at 7.9 μl/min/1E6.

As for `Cc1c(C(=O)[C@@H]2CCN(C(=O)[C@H]3NC[C@@H]4C[C@@H]43)[C@@H](C)C2)c2ccncc2n1-c1ccc(F)cc1C(=O)N(CC(F)(F)F)C(C)C` (single isomer, unassigned) [Example 53-4, 2-(3-((2R*,4S*)-1-((1S,2S,5R)-3-Azabicyclo[3.1.0]hexane-2-carbonyl)-2-methylpiperidine-4-carbonyl)-2-methyl-1H-pyrrolo[2,3-c]pyridin-1-yl)-5-fluoro-N-isopropyl-N-(2,2,2-trifluoroethyl)benzamide], the IC50 at Menin protein is 48 nM; in the series with MOLM-13 cells [1], 71 nM; in the series with MV4;11 cells, 53 nM; in the series with OCI-AML3 cells, 118 nM; in the series with HEL cells it was greater than 10000 nM. Besides, in series [2] (human, microsomes, 1 µM, pH 7.4), the “HLM CLint” value came to 89 µL/min/mg.

`CC1(C)CCC(CN2CCN(c3ccc(C(=O)NS(=O)(=O)c4ccc(NCC5CCOCC5)c([N+](=O)[O-])c4)c(Oc4cnc5[nH]ccc5c4)c3)CC2)=C(c2ccc(Cl)cc2)C1` [venetoclax, reference compound]: the “cell viability as monotherapy (in words)” value with MOLM-13 cells [4] is on record as “cell viability loss was induced”.
